Results reported in patent publication US20230117470A1, “SUBSTITUTED PYRAZOLE COMPOUNDS AS TOLL RECEPTOR INHIBITORS” (BRISTOL-MYERS SQUIBB COMPANY, priority 2019, published 2023).

Tests used:
Type in all cases: cell-based
human TLR8 = target: T1, human TLR8 (Homo sapiens, UniProt Q9NR97); test: TLR8 inhibition reporter assay (HEK-Blue cells, SEAP reporter, R848 stimulation); settings: HEK-Blue cells overexpressing human TLR8, SEAP reporter, R848 15.9 μM
T1 construct: host or cells: HEK-Blue cells
T1 sequence (Q9NR97 27-1041): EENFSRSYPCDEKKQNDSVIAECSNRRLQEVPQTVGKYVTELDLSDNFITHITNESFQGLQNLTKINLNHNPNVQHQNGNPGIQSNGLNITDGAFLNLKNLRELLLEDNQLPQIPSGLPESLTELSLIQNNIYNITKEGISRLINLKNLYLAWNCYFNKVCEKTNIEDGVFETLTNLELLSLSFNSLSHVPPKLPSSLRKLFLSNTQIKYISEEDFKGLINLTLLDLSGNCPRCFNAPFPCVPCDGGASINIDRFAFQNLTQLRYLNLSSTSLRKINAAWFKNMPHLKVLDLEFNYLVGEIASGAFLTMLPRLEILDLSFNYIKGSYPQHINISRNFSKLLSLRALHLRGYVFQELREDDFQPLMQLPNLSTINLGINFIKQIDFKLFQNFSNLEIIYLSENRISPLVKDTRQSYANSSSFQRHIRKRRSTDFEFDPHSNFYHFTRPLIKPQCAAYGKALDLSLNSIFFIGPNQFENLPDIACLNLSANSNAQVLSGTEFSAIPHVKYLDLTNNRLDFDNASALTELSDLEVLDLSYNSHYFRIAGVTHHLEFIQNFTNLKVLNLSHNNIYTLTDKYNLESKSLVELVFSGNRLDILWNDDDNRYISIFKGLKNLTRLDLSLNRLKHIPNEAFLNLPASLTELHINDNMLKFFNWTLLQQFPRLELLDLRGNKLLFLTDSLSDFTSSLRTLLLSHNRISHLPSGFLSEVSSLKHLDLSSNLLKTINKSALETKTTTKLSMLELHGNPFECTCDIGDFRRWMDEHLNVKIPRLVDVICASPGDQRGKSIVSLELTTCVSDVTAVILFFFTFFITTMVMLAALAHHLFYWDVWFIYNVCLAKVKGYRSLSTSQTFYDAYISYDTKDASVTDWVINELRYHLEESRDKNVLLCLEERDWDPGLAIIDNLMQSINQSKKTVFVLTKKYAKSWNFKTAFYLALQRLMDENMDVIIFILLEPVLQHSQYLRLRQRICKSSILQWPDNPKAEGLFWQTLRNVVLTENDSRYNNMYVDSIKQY
Procedure, shortened: (§1)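 30 min RT cpd pre-incubation (0.05 nM–50 μM final dose response) → agonist: gardiquimod 7.5 μM / R848 15.9 μM / ODN2006 5 nM for TLR7/8/9 resp. → 22 h, 37° C → SEAP via detection medium. % inhibition vs agonist+DMSO and reference inhibitor controls.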

human TLR9 = target: T2, human TLR9 (Homo sapiens, UniProt Q9NR96); test: TLR9 inhibition reporter assay (HEK-Blue cells, SEAP reporter, ODN2006 stimulation); settings: HEK-Blue cells overexpressing human TLR9, SEAP reporter, ODN2006 5 nM
T2 construct: host or cells: HEK-Blue cells
T2 sequence (Q9NR96 26-1032): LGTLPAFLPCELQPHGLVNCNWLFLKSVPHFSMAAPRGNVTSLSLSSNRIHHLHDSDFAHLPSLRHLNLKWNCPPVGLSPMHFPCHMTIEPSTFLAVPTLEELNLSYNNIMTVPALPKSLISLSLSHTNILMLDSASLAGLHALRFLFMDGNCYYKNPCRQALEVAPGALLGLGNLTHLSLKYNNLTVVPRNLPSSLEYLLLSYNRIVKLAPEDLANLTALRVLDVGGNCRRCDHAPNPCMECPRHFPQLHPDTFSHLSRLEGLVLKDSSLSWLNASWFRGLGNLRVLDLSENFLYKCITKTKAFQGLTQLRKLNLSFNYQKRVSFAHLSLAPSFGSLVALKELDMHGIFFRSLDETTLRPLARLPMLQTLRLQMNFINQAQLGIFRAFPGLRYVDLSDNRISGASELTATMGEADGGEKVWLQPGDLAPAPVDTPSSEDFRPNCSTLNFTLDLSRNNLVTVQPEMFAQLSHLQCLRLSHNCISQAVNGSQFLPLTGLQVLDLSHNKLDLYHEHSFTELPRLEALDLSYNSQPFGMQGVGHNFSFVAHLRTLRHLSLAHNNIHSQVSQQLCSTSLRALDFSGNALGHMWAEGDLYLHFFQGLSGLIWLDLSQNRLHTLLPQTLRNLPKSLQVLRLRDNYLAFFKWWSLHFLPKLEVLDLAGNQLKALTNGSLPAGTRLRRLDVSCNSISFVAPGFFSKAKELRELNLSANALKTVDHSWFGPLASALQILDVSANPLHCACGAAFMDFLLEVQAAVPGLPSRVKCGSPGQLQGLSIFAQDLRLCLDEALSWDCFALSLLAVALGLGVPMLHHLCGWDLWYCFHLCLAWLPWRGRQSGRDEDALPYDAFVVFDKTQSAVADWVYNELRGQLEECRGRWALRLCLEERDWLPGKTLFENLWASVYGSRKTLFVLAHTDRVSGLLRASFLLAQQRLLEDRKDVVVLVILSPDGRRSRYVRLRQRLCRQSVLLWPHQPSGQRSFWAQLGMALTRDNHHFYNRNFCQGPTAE
Procedure, shortened: as §1

human TLR7 = target: T3, human TLR7 (Homo sapiens, UniProt Q9NYK1); test: TLR7 inhibition reporter assay (HEK-Blue cells, SEAP reporter, gardiquimod stimulation); settings: HEK-Blue cells overexpressing human TLR7, SEAP reporter, gardiquimod 7.5 μM
T3 construct: host or cells: HEK-Blue cells
T3 sequence (Q9NYK1 27-1049): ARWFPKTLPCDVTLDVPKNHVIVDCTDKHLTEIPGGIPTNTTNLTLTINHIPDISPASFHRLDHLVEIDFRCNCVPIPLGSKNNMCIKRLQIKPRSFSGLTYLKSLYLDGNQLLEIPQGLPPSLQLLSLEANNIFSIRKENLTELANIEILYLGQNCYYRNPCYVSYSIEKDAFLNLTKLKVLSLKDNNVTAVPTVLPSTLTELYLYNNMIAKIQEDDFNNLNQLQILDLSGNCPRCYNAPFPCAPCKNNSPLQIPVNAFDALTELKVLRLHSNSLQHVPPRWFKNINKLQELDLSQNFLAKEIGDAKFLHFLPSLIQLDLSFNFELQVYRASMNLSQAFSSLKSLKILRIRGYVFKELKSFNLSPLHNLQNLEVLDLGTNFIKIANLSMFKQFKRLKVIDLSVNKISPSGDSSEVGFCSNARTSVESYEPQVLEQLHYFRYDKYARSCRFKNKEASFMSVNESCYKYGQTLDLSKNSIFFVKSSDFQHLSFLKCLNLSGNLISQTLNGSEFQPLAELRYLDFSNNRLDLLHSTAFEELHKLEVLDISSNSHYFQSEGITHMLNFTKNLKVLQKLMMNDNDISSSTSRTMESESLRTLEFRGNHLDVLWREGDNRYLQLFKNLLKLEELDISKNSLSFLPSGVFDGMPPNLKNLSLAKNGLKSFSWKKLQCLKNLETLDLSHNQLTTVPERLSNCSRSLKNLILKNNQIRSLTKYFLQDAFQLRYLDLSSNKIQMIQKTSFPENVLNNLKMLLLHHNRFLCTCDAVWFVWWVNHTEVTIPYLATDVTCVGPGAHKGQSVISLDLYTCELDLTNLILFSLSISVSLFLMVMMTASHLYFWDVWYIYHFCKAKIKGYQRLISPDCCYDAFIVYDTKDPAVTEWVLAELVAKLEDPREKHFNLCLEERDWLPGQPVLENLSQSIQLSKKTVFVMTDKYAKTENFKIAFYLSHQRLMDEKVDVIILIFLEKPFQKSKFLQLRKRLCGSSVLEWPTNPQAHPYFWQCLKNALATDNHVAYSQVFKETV
Procedure, shortened: as §1

Row | IC50 (human TLR8) [nM] | IC50 (human TLR9) [µM] | IC50 (human TLR7) [nM] | Structure (SMILES)
1 | 0.87 | 0.383 | 0.88 | Cc1cc(-c2[nH]nc(C(=O)N[C@H]3CCCN(C4COC4)C3)c2C(C)C)cn2ncnc12 [Example 166]
2 | 33 | 46.9 | 18 | CCN1CCC(c2cnc(-c3n[nH]c(-c4cc(C)c5ncnn5c4)c3C(C)C)nc2)CC1 [Example 369]
3 | 18.6 | 35.9 | 1.44 | Cc1cc(-c2[nH]nc(-c3nc4c(s3)CNCC4)c2C(C)C)cn2ncnc12 [Example 218]
4 | 8.06 | 16.1 | 3.69 | CCN(CCC#N)C(=O)c1n[nH]c(-c2cc(C)c3ncnn3c2)c1C(C)C [Example 20]
5 | 168 | > 50 | 47.4 | Cc1cc(-c2[nH]nc(-c3ccc(N4CCN(CC(C)(C)C)CC4)cc3)c2C(C)C)cn2ncnc12 [Example 408]
6 | 36 | 5.66 | 9.92 | CCc1c(C(=O)NC2CCN(C)CC2)n[nH]c1-c1cc(C)c2ncnn2c1 [Example 181, 4-ethyl-5-(8-methyl-[1,2,4]triazolo[1,5-a]pyridin-6-yl)-N-(1-methylpiperidin-4-yl)-1H-pyrazole-3-carboxamide]
7 | 90.9 | 14.3 | 2.25 | Cc1cc(-c2[nH]nc(C(=O)N[C@H]3CC[C@H](NCC(C)(C)C)CC3)c2C(C)C)cn2ncnc12 [Example 106]
8 | 7.87 | > 50 | 4.19 | Cc1cc(-c2[nH]nc(-c3cccc(N)c3)c2C(C)C)cn2ncnc12 [Example 232]
9 | 6.23 | 6.25 | 3.76 | Cc1cc(-c2c(C(C)C)c(C(=O)NC3CCN(CC(F)(F)F)CC3)nn2CC(F)(F)F)cn2ncnc12 [Example 175, 4-isopropyl-5-(8-methyl-[1,2,4]triazolo[1,5-a]pyridin-6-yl)-1-(2,2,2-trifluoroethyl)-N-(1-(2,2,2-trifluoroethyl)piperidin-4-yl)-1H-pyrazole-3-carboxamide]
10 | 29.4 | > 50 | 72.1 | Cc1cc(-c2[nH]nc(-c3ncc(C4CCN(CC(C)(C)C)CC4)cn3)c2C(C)C)cn2ncnc12 [Example 371]
11 | 0.28 | 9.71 | 4.94 | CNC1CCC(c2n[nH]c(-c3cc(C)c4ncnn4c3)c2C(C)C)CC1 (single isomer, unassigned) [Example 295]
12 | 1540 | 25.2 | 1300 | Cc1cc(-c2[nH]nc(C(=O)NC3CCN(C(C)C)CC3)c2C(C)C)cc(C)n1 [Example 36]
13 | 0.29 | 5.49 | 4.87 | Cc1cc(-c2[nH]nc(-c3ccc(N(C)C)nc3)c2C(C)C)cn2ncnc12 [Example 237]
14 | 11.4 | 18.2 | 4.43 | Cc1cc(-c2[nH]nc(-c3ccc(N)nc3)c2C(C)C)cn2ncnc12 [Example 227]
15 | 1.46 | 8.86 | 2.18 | Cc1cc(-c2[nH]nc(-c3cnc(N)nc3)c2C(C)C)cn2ncnc12 [Example 228]
16 | 7.58 | 7.79 | 8.56 | Cc1cc(-c2[nH]nc(C(=O)NC3CCN(CC(F)(F)F)CC3)c2C(C)C)cn2ncnc12 [Example 173]
17 | 2.57 | 3.74 | 5.69 | Cc1cc(-c2[nH]nc(C(=O)N3CC[C@@H](N(C)C)C3)c2C(C)C)cn2ncnc12 [Example 18]
18 | 463 | > 50 | 221 | COc1cc(-c2[nH]nc(-c3cnc(C4CCN(CCS(C)(=O)=O)CC4)cn3)c2C(C)C)cn2ncnc12 [Example 397]
19 | 3.05 | 18.5 | 1.84 | Cc1cc(-c2[nH]nc(C(=O)NCCN3CCOCC3)c2C(C)C)cn2ncnc12 [Example 3]
20 | 3.51 | 47 | 17.5 | CCCN1CCC(c2cnc(-c3n[nH]c(-c4cc(OC)c5ncnn5c4)c3C(C)C)cn2)CC1 [Example 383]
21 | 2.44 | 6.71 | 1.69 | Cc1cc(-c2cc(C(=O)NC3CCN(C(C)C)CC3)n[nH]2)cn2ncnc12 [Example 178, N-(1-isopropylpiperidin-4-yl)-5-(8-methyl-[1,2,4]triazolo[1,5-a]pyridin-6-yl)-1H-pyrazole-3-carboxamide]
22 | 5.22 | > 50 | 2.54 | Cc1cc(-c2[nH]nc(C(=O)NC3CCNCC3)c2C(C)C)cn2ncnc12 [Example 43, 4-isopropyl-5-(8-methyl-[1,2,4]triazolo[1,5-a]pyridin-6-yl)-N-(piperidin-4-yl)-1H-pyrazole-3-carboxamide]
23 | 0.79 | 5.07 | 0.94 | Cc1cc(-c2[nH]nc(C(=O)N3CC[C@H](N)C3)c2C(C)C)cn2ncnc12 [Example 53]
24 | 17.5 | 25.3 | 44 | Cc1cc(-c2[nH]nc(-c3ccc(NC(C)C)cc3)c2C(C)C)cn2ncnc12 [Example 244]
